Assay [1] relates to circulating adrenal steroids. To be noted: patients with normally functioning adrenals; cited from earlier work.
Assay [2] concerns circulating adrenal steroids. The assay can be described thus: Circulating plasma adrenal steroids in whole, healthy rats (radioimmunoassay, FIG. 1). Type of assay: in vivo, rat. On the procedure: Trilostane has been used in treatments that are aimed at suppressing adrenal steroid secretion. Examples of adrenal steroids include cortisol, aldosterone and corticosterone. In practice, in patients with normally functioning adrenals, circulating adrenal steroids are reduced only at high trilostane dosage levels upwards of 8 to 10 mg/kg/day equivalent, and this is the regime most frequently used (Beardwell et al. 1985, Clin Endocrinol (Oxf), 23, 413-21, Engelhardt and Weber 1994, J Steroid Biochem Mol Biol, 40, 261-7). […] This can be shown by testing the levels of circulating adrenal steroids pre- and post-treatment and assessing whether or not the concentrations of adrenal steroids have been reduced. The levels of circulating adrenal steroids in the plasma can be tested by collecting circulating blood from a vein. Plasma is obtained by centrifugation and plasma steroid (for example, cortisol and aldesterone for humans, corticosterone and aldosterone in rats) is assayed using a conventional radioimmunoassay. Suitable corticosterone radioammunoassay kits are available from Amersham Biosciences UK Limited. Suitable aldosterone radioimmunoassay kits are available from Diagnostic Products Corporation.

The subject of assay [3] is vascular smooth muscle cells. The assay can be described thus: Fura-2 [Ca2+]i signal response to angiotensin II in smooth muscle cells cultured from trilostane treated rats. More on the design: key: + = calcium response; − = no response. It is filed as cell-based, rat. As to conditions: cells (TTSMC) from rats given trilostane 4 mg/kg per day for 5 days. The method, then: Male Wistar rats (˜500 g) were treated with 0.1 ml ethanol in cotton seed oil with trilostane 4 mg/kg per day for 5 days. Control animals received the vehicle alone. Animals were then treated with 0.1 ml (500 u) heparin IP, before killing by stunning and cervical dislocation. Blood was collected from neck vessels, centrifuged to obtain plasma which was stored at −20° C. until required for steroid analysis. Corticosterone and aldosterone concentrations were assayed using commercially available kits (Diagnostic Systems Laboratories Inc., Webster, Tex., USA). Circulating concentrations of corticosterone (FIG. 3 (a)) and aldosterone (FIG. 3(b)) are shown for control animals and animals receiving trilostane treatment. […] Primary cultures were established of RASMC obtained from trilostane treated and control animals, using the established methods. For [Ca^2+]i measurement, the cells were loaded with 1 μM fura-2 for 30 min in medium-modified Krebs-Ringer bicarbonate solution (3.6 mM K^+, 1.2 mM Ca^2+, 0.5 mM Mg^2+, 5 mM Hepes and 20 mM HCO^−) at 37° C. For simultaneous measurements of measuring the fluorescence of fura-2, the cells plated on coverslips were mounted on the stage of an inverted microscope (Zeiss) in a modified Krebs-Ringer bicarbonate solution. The excitation wavelengths were 340 and 380 nm, and emission was detected at 510 nm. [Ca^2+]i was calculated from the ratio of fluorescence intensities at excitation wavelengths of 340 and 380 nm. Fields of cells, ˜10 cells per field, were tested from control and trilostane treated animals. The results are shown in Table 3 and FIGS. (c) and (d) wherein the arrow indicates the time of application of angiotensin II. Characteristic calcium signals obtained by stimulation of vascular smooth muscle cells from control animals (FIG. 3(c)) and trilostane treated animals (FIG. 3(d)) by 10 nmol/L angiotensin II.

Assay [4] concerns circulating adrenal steroids. In words: Circulating corticosterone and aldosterone in male Wistar rats after 5 days of trilostane (FIG. 3a, b). Type of assay: in vivo, rat. As to conditions: trilostane 4 mg/kg per day for 5 days, versus vehicle control. The method, then: Male Wistar rats (˜500 g) were treated with 0.1 ml ethanol in cotton seed oil with trilostane 4 mg/kg per day for 5 days. Control animals received the vehicle alone. Animals were then treated with 0.1 ml (500 u) heparin IP, before killing by stunning and cervical dislocation. Blood was collected from neck vessels, centrifuged to obtain plasma which was stored at −20° C. until required for steroid analysis. Corticosterone and aldosterone concentrations were assayed using commercially available kits (Diagnostic Systems Laboratories Inc., Webster, Tex., USA). Circulating concentrations of corticosterone (FIG. 3 (a)) and aldosterone (FIG. 3(b)) are shown for control animals and animals receiving trilostane treatment.

The subject of assay [5] is rat aortic smooth muscle cells (RASMC). The assay can be described thus: Cell count for rat aortic smooth muscle cells stimulated with Ang II. It is filed as cell-based. To be noted: 48 hours; for Cell Count: 20% FBS RPMI-1640, control 12.00 × 10^4, Ang II alone 21.30 × 10^4; for Effect on Ang II stimulated increase in cell number: Ang II 10^−7 M. An excerpt:
(§1) Aortic smooth muscle cells (ASMCs) were isolated from rat thoracic and abdominal artery (RASMC) and bovine aorta (BASMC) by the media explant method and cultured over several passages.
(§2) Segments of both abdominal and thoracic aortas were obtained from rats by careful dissection from killed rats. Segments of aorta were obtained from calves under anaesthesia. The segments of aorta were placed in a depression slide containing tissue culture medium, after which the adventitia and the outer portion of each segment was carefully removed under a dissecting microscope. The remaining inner portion of the tissue and the intima were removed to a separate dissecting dish and washed several times with fresh culture medium. At this point each segment was cut into approximately 1 mm squares and placed on 25 cm^2 tissue culture flask. The flasks were loosely capped and placed in a humidified CO2 incubator After two hours, 4 ml of RPMI-1640 culture medium supplemented with 100 units/ml of penicillin, […] streptomycin, […] L-glutamine and 20% […] was carefully added to the flasks without dislodging the tissue. Samples were fed with fresh medium after one week. The cells from the explants were relatively confluent within a period of approximately 2 weeks. They were then rinsed with PBS, and subsequently trypsinized with a solution of 0.125% trypsin and 0.02% EDTA in PBS for 1-2 min al 37° C. The resulting suspension of cells was pipetted into 75 cm^2 tissue culture flasks containing 10 ml culture medium and incubated as above.
(§3) Experiments were performed with cells from passages 3 to 5.
Cell count for rat aortic smooth muscle cells (RASMC). RASMC (0.5×10^5/ml/well) were incubated with 20% FBS RPMI-1640 medium containing Ang II (10^−7 M) with or without different concentrations of trilostane for 48 hours.

Assay [6] relates to AT1 receptor mRNA. In words: AT1 receptor mRNA expression by RT-PCR and real-time quantitative RT-PCR in RASMC (FIG. 4). Type of assay: cell-based, rat. To be noted: 48 hours, trilostane added to angiotensin II, FIG. 4, P<0.01. The method, then:
[…] Real-time RT-PCR was performed using Brilliant SYBR Green QRT-PCR Master Mix Kit, 1-step based on real-time detection of accumulated fluorescence (M×300P, Stratagene, Amsterdam). Results are means, SEM too small to show. **=P<0.01.

The subject of assay [7] is rat aortic smooth muscle cells (RASMC). The assay can be described thus: 3H-methylthymidine incorporation into rat aortic smooth muscle cells stimulated with Ang II. It is filed as cell-based. To be noted: for Tritiated thymidine uptake / Effect on tritium incorporation induced by Ang II: 48 hours; for Tritiated thymidine uptake: serum-free medium, control 57.6, Ang II alone 87.1; for Effect on tritium incorporation induced by Ang II: Ang II 10^−7 M.
Excerpt: as §1, §2, §3
^3H-methylthymidine incorporation into rat aortic smooth muscle cells (RASMC). Quiescent RASMC (0.3×10^5/ml/well) were incubated with serum-free medium (SFM) containing Ang II (10^−7 M) with or without different concentrations of trilostane for 48 hours. The results are shown in Table 1. ^3H-methylthymidine incorporation into RASMC was increased in the Ang II treated group.
Using the same tritiated thymidine uptake methodology as for Example 1, the actions of Losartan on angiotensin II-stimulated cell proliferation were tested in the presence and absence of trilostane.

Assay [8] has as its system LV dysfunction and remodeling. As to conditions: dogs with chronic heart failure, 3 months of treatment, cited from earlier work.
Assay [9] relates to myocardial injury. As to conditions: rat model, angiotensin-induced injury, treatment with eplerenone; cited from earlier work.
The subject of assay [10] is severe congestive heart failure (CHF). To be noted: patients with severe congestive heart failure, given in addition to ACE inhibitors; cited from earlier work.
[11] abbreviates: Ang II 10^−7 M + trilostane 10^−5 M.
The mark [12] stands for this setting: Ang II 10^−7 M + trilostane 10^−6 M.
Where [13] appears, read: Ang II 10^−7 M + trilostane 10^−7 M.
Where [14] appears, read: Ang II 10^−7 M + trilostane 10^−8 M.
The mark [15] stands for this setting: Ang II 10^−7 M + trilostane 10^−9 M.
Where [16] appears, read: trilostane at 10^−6 and 10^−5 M.
Where [17] appears, read: trilostane at 10^−9, 10^−8 and 10^−7 M.

With `C[C@]12CC[C@H]3[C@@H](CC[C@@]45O[C@@H]4C(O)=C(C#N)C[C@]35C)[C@@H]1CC[C@@H]2O` [trilostane, (4α,5α-17β)-4,5-epoxy-3,17-dihydroxyandrost-2-ene-2carbonitrile], the “Dosage level at which circulating adrenal steroids are reduced” value in assay [1] is 8 to 10 mg/kg/day. For the same compound, the Circulating corticosterone levels entry in [2] (rats, trilostane 4 mg/kg/day or 8 mg/kg/day) is given as “Neither dose (4 mg/kg/day or 8 mg/kg/day) affects circulating corticosterone levels”. Besides, the “Concentrations of aldosterone in circulating plasma” value in [2] (rats, trilostane 4 mg/kg/day, FIG. 1b) is listed as “does not reduce concentrations of aldosterone in circulating plasma”; in assay [2] (whole, healthy rats, trilostane 8 mg/kg/day, FIG. 1a), “reduces concentrations of aldosterone in circulating plasma”. The “Calcium signal response to angiotensin II” value was “+” in assay [3] (Ang II 10^−6 M); “−” in assay [3] (Ang II 10^−7 M); “−” in assay [3] (Ang II 10^−8 M, control cells (NSMC) +); “−” in assay [3] (Ang II 10^−9 M, control cells (NSMC) −); “−” in assay [3] (Ang II 10^−10 M, control cells (NSMC) −); “−” in assay [3] (Ang II 10^−11 M, control cells (NSMC) −). In [4] (FIG. 3(a)), the “Circulating concentrations of corticosterone” value is “no significant differences”. The “Circulating concentrations of aldosterone” value in assay [4] (FIG. 3(b)) is “no significant differences”. Moreover, the “Cell Count” value in assay [5] (setting [11]) is given as 14.25 × 10^4; in [5] (setting [12]), 14.00 × 10^4; in [5] (setting [13]), 20.00 × 10^4; in assay [5] (setting [14]) it was 21.95 × 10^4; in assay [5] (setting [15]), 21.00 × 10^4. Besides, the “Effect on Ang II stimulated increase in cell number” value is “inhibited” in [5] (setting [16]); “not at 10^−9, 10^−8 and 10^−7 M” in assay [5] (setting [17]). Besides, in [6], the “mRNA transcription of the gene coding for the angiotensin II type 1 receptor (AT1)” value was “reduced even further”. Further, the Tritiated thymidine uptake is 42.7 dpm in [7] (setting [11]); 74.9 dpm in assay [7] (setting [12]); 89.1 dpm in assay [7] (setting [13]); 101.88 dpm in assay [7] (setting [14]); 96.7 dpm in [7] (setting [15]). For the same compound, the “Cell proliferation (tritiated thymidine uptake)” value in [7] (trilostane additionally present with Losartan, FIG. 2, P<0.05 / P<0.01) is reported as “decreased cell proliferation still further to less than control values”. Moreover, the “Effect on tritium incorporation induced by Ang II” value was “inhibited” in [7] (setting [16]); “not at 10^−9, 10^−8 and 10^−7 M” in assay [7] (setting [17]).
With `CCCCc1nc(Cl)c(CO)n1Cc1ccc(-c2ccccc2-c2nn[nH]n2)cc1` [Losartan], the “Action on angiotensin II-stimulated cell proliferation (tritiated thymidine uptake)” value in [7] (Losartan with angiotensin II, absence of trilostane, FIG. 2) is “significantly eliminated the stimulatory action of angiotensin II”. Also, the “Cell proliferation (tritiated thymidine uptake) compared with controls” value in assay [7] (losartan alone group, FIG. 2) is given as “not different from controls”.
For `COC(=O)[C@@H]1CC2=CC(=O)CC[C@]2(C)[C@@]23O[C@@H]2C[C@@]2(C)[C@@H](CC[C@@]24CCC(=O)O4)[C@H]13` [eplerenone], in [8] (compared with control), the “Reduction in cardiomyocyte cross-sectional area” value is 28%, the “Reduction of volume fraction of reactive interstitial fibrosis” value is 37% and the “Reduction of volume fraction of replacement fibrosis” value is recorded as 34%. In addition, the “LV end-diastolic wall stress” value in assay [8] (increased significantly in control dogs) is “decreased significantly”. In assay [8] (volumes increased significantly in control dogs), the “End-diastolic volume, end-systolic volume, and EF” value is “remained unchanged”. Moreover, in assay [9], the “COX-2 expression in the media of coronary arteries” value is “markedly attenuated”, the Myocardial injury entry is recorded as “markedly attenuated” and the “Osteopontin expression in the media of coronary arteries” value is “markedly attenuated”.
For `CC(=O)S[C@@H]1CC2=CC(=O)CC[C@]2(C)[C@H]2CC[C@@]3(C)[C@@H](CC[C@@]34CCC(=O)O4)[C@H]12` [spironolactone], in assay [10], the Mortality entry was “significantly reduced mortality”.

The values above are taken from patent US20070142341A1, “Use of steroid derivatives for the treatment of angiotensin ll related disease e.g. cardiovascular and proliferative disorders” (priority 2003, published 2007).
